Experimental data published in patent publication US20240024488A1, “COMPOUNDS AND USES THEREOF” (Foghorn Therapeutics Inc., priority 2020, published 2024).

What was measured:
HiBit-BRM fusion protein = target: T1, HiBit-BRM fusion protein (Homo sapiens, UniProt P51531); test: HiBiT-BRM cell-based degradation assay (Nano-Glo HiBiT Lytic Detection, 24 h); details: HeLa cell line expressing HiBiT-BRM; for DC50: read-out: BRM HiBit Degradation IC50
T1 construct: expressed in transfected cells
Summary of the method: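 Luminescence from reconstituted NanoBiT luciferase in lysed HeLa HiBiT-BRM cells served as the measure of remaining BRM after 24 h treatment. Compounds were tested from 30 μM final downward in 3-fold steps. DMSO and 2 μM of a standard BRM/BRG1 degrader defined the scale limits.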

[1] = target: T2, HiBit-BRG1 fusion protein (Homo sapiens, UniProt P51532); test: HiBiT-BRG1 cell-based degradation assay (Nano-Glo HiBiT Lytic Detection, 24 h); details: HeLa cell line expressing HiBit-BRG1 and LgBit; for Dmax: read-out: BRG1 HiBit Degradation Maximum (%); for DC50: read-out: BRMG1 HiBit Degradation IC50
T2 construct: expressed in transfected cells
T2 sequence (P51532 whole entry, the tested form may be a part): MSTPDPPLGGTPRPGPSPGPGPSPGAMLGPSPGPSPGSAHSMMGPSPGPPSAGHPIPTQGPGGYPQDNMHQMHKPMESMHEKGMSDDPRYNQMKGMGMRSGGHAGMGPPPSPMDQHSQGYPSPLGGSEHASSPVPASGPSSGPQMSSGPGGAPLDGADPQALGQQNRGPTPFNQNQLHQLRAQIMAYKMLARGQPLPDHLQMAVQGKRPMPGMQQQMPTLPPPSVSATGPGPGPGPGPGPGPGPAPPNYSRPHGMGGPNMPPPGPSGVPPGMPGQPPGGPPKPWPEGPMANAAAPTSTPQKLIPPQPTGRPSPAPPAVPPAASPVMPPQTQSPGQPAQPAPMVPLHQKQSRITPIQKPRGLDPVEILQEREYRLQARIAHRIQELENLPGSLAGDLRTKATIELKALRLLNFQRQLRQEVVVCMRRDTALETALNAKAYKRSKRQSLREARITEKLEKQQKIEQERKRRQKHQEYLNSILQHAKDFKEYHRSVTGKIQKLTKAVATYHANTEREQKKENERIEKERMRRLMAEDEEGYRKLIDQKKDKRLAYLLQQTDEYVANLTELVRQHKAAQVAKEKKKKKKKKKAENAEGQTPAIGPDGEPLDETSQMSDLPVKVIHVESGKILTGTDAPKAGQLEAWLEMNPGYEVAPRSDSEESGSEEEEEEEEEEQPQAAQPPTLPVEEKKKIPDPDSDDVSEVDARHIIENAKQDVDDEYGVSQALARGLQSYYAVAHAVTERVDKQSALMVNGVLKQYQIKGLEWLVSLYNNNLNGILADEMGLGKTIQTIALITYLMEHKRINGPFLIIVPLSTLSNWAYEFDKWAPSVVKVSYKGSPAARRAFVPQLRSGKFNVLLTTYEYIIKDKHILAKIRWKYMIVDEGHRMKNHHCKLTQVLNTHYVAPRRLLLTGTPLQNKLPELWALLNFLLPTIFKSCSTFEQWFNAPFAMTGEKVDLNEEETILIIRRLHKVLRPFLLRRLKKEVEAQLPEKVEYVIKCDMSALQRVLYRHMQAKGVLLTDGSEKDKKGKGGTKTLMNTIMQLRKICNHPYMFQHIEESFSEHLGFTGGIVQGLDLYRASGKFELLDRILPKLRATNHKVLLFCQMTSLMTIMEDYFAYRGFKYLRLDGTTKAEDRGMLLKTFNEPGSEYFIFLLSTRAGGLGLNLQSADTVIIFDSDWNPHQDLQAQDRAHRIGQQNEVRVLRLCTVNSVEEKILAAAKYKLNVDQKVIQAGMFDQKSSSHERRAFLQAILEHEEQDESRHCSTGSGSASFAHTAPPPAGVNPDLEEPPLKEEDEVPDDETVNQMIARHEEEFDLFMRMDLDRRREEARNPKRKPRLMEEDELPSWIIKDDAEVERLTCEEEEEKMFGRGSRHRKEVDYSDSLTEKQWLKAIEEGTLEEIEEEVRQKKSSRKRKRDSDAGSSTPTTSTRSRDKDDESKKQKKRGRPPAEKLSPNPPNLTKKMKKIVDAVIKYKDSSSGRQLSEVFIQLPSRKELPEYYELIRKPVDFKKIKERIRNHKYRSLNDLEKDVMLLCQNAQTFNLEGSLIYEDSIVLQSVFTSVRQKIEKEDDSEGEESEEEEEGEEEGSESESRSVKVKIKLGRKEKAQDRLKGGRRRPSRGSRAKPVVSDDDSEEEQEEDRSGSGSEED
Summary of the method: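 Luminescence from reconstituted NanoBiT luciferase after lytic detection served as read-out of remaining HiBit-BRG1 in stable HeLa cells, which also express LgBit. Cells were seeded at 5000 per well and incubated with compound for 24 h. DMSO and a 2 μM known degrader defined the control range.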

T1 sequence (P51531 whole entry, the tested form may be a part): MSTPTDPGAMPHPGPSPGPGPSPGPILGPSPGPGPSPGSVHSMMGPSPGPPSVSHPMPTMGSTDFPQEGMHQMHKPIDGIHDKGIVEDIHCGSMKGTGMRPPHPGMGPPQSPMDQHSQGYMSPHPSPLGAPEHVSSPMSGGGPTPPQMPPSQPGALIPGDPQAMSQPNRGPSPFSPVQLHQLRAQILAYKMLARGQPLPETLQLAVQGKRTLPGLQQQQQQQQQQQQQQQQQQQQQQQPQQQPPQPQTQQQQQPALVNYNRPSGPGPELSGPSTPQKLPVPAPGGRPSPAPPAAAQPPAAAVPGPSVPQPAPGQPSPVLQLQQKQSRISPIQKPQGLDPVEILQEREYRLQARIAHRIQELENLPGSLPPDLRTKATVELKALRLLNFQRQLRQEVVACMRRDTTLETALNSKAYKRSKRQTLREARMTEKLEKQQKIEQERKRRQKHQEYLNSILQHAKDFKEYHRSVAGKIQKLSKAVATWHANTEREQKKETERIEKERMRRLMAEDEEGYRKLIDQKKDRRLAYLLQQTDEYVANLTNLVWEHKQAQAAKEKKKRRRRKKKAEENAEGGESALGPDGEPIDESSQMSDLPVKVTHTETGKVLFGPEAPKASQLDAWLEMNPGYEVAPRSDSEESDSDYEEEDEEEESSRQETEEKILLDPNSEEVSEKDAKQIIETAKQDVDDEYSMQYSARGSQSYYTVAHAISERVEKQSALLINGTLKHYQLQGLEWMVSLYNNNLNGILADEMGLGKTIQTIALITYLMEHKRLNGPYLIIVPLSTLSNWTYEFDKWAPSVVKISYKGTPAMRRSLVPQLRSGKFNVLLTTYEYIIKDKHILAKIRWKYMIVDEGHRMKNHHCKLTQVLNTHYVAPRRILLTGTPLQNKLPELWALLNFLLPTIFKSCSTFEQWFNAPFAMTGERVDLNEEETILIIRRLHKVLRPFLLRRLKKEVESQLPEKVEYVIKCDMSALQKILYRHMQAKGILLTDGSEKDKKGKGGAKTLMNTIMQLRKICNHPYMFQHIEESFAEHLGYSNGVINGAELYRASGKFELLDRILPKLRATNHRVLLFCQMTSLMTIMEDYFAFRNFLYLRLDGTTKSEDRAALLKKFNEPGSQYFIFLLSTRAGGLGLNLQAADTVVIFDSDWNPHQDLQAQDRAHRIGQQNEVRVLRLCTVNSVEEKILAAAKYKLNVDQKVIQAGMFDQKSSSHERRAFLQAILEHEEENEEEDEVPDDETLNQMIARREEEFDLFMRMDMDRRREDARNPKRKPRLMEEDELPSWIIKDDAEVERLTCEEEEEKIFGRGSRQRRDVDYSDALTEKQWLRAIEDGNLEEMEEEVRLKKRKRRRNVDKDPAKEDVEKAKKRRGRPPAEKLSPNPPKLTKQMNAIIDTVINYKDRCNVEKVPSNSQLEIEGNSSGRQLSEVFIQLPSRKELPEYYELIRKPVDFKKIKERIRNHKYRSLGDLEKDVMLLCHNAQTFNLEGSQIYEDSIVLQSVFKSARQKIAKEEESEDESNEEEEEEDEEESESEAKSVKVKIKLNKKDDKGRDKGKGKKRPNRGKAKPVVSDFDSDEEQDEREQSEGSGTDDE

| Dmax [1] | DC50 (HiBit-BRM fusion protein) | DC50 [1] | SMILES | BRM HiBit Degradation Maximum (%) (HiBit-BRM fusion protein) |
| --- | --- | --- | --- | --- |
| < 50% | – | – | Cc1ncsc1-c1ccc([C@H](C)NC(=O)[C@@H]2C[C@@H](O)CN2C(=O)[C@H](c2cc(OCCCN3C[C@@H]4[C@H](C3)[C@H]4c3cc4cc(-c5ccccc5O)nnc4[nH]3)no2)C(C)C)cc1 (racemic) [Compound 215, (2S,4R)-4-hydroxy-1-((S)-2-(3-(3-((1R,5S,6S)-6-(3-(2-hydroxyphenyl)-7H-pyrrolo[2,3-c]pyridazin-6-yl)-3-azabicyclo[3.1.0]hexan-3-yl)propoxy)isoxazol-5-yl)-3-methylbutanoyl)-N-((S)-1-(4-(4-methylthiazol-5-yl)phenyl)ethyl)pyrrolidine-2-carboxamide] | C (“C” indicates maximum degradation < 50%) |
| < 50% | > 0.1 µM | – | Cc1ncsc1-c1ccc([C@H](C)NC(=O)[C@@H]2C[C@@H](O)CN2C(=O)[C@@H](c2cc(OCCCN3C[C@@H]4[C@H](C3)[C@H]4c3cc4cc(-c5ccccc5O)nnc4[nH]3)no2)C(C)C)cc1 (racemic) [Compound 216, (2S,4R)-4-hydroxy-1-((R)-2-(3-(3-((1R,5S,6R)-6-(3-(2-hydroxyphenyl)-7H-pyrrolo[2,3-c]pyridazin-6-yl)-3-azabicyclo[3.1.0]hexan-3-yl)propoxy)isoxazol-5-yl)-3-methylbutanoyl)-N-((S)-1-(4-(4-methylthiazol-5-yl)phenyl)ethyl)pyrrolidine-2-carboxamide] | A (“A” indicates maximum degradation ≥ 75%) |
| > 75% | < 0.01 µM | > 0.01 µM | Cc1ncsc1-c1ccc([C@H](C)NC(=O)[C@@H]2C[C@@H](O)CN2C(=O)[C@@H](c2cc(OCCNC34CC(c5[nH]c6nnc(-c7ccccc7O)cc6c5C)(C3)C4)no2)C(C)C)cc1 (racemic) [Compound 220, (2S,4R)-4-hydroxy-1-((R)-2-(3-(2-((3-(3-(2-hydroxyphenyl)-5-methyl-7H-pyrrolo[2,3-c]pyridazin-6-yl)bicyclo[1.1.1]pentan-1-yl)amino)ethoxy)isoxazol-5-yl)-3-methylbutanoyl)-N-((S)-1-(4-(4-methylthiazol-5-yl)phenyl)ethyl)pyrrolidine-2-carboxamide] | A (“A” indicates maximum degradation ≥ 75%) |
| < 50% | > 0.1 µM | – | Cc1ncsc1-c1ccc([C@H](C)NC(=O)[C@@H]2C[C@@H](O)CN2C(=O)[C@@H](c2cc(OCCN(C)CCC(=O)N3CC(c4c[nH]c5nnc(-c6ccccc6O)cc45)C3)no2)C(C)C)cc1 (racemic) [Compound 221, (2S,4R)-4-hydroxy-1-((R)-2-(3-(2-((3-(3-(3-(2-hydroxyphenyl)-7H-pyrrolo[2,3-c]pyridazin-5-yl)azetidin-1-yl)-3-oxopropyl)(methyl)amino)ethoxy)isoxazol-5-yl)-3-methylbutanoyl)-N-((S)-1-(4-(4-methylthiazol-5-yl)phenyl)ethyl)pyrrolidine-2-carboxamide] | B (“B” indicates maximum degradation ≥ 50%) |
| < 50% | > 0.01 µM | – | Cc1ncsc1-c1ccc([C@H](C)NC(=O)[C@@H]2C[C@@H](O)CN2C(=O)[C@@H](c2cc(OCCN(C)Cc3cc4cc(-c5ccccc5O)nnc4[nH]3)no2)C(C)C)cc1 (racemic) [Compound 222, (2S,4R)-4-hydroxy-1-((R)-2-(3-(2-(((3-(2-hydroxyphenyl)-7H-pyrrolo[2,3-c]pyridazin-6-yl)methyl)(methyl)amino)ethoxy)isoxazol-5-yl)-3-methylbutanoyl)-N-((S)-1-(4-(4-methylthiazol-5-yl)phenyl)ethyl)pyrrolidine-2-carboxamide] | B (“B” indicates maximum degradation ≥ 50%) |
| > 75% | > 0.01 µM | > 0.1 µM | Cc1ncsc1-c1ccc([C@H](C)NC(=O)[C@@H]2C[C@@H](O)CN2C(=O)[C@@H](c2cc(OCCNC3CC4(C3)CC(c3cc5cc(-c6ccccc6O)nnc5[nH]3)C4)no2)C(C)C)cc1 (mixture of isomers) [Compound 223, (2S,4R)-4-hydroxy-1-((R)-2-(3-(2-((6-(3-(2-hydroxyphenyl)-7H-pyrrolo[2,3-c]pyridazin-6-yl)spiro[3.3]heptan-2-yl)amino)ethoxy)isoxazol-5-yl)-3-methylbutanoyl)-N-((S)-1-(4-(4-methylthiazol-5-yl)phenyl)ethyl)pyrrolidine-2-carboxamide] | A (“A” indicates maximum degradation ≥ 75%) |
| > 50% | > 0.01 µM | > 1 µM | Cc1ncsc1-c1ccc([C@H](C)NC(=O)[C@@H]2C[C@@H](O)CN2C(=O)[C@@H](c2cc(OCCN3C[C@@H]4[C@H](C3)[C@H]4c3cc4cc(-c5cc(F)ccc5O)nnc4[nH]3)no2)C(C)C)cc1 (racemic) [Compound 224, (2S,4R)-1-((R)-2-(3-(2-((1R,5S,6R)-6-(3-(5-fluoro-2-hydroxyphenyl)-7H-pyrrolo[2,3-c]pyridazin-6-yl)-3-azabicyclo[3.1.0]hexan-3-yl)ethoxy)isoxazol-5-yl)-3-methylbutanoyl)-4-hydroxy-N-((S)-1-(4-(4-methylthiazol-5-yl)phenyl)ethyl)pyrrolidine-2-carboxamide] | A (“A” indicates maximum degradation ≥ 75%) |
| < 50% | > 0.01 µM | – | Cc1ncsc1-c1ccc([C@H](C)NC(=O)[C@@H]2C[C@@H](O)CN2C(=O)[C@@H](c2cc(OCCN3C[C@@H]4[C@H](C3)[C@H]4c3cc4cc(-c5cc(F)cc(Cl)c5O)nnc4[nH]3)no2)C(C)C)cc1 (racemic) [Compound 225, (2S,4R)-1-((R)-2-(3-(2-((1R,5S,6R)-6-(3-(3-chloro-5-fluoro-2-hydroxyphenyl)-7H-pyrrolo[2,3-c]pyridazin-6-yl)-3-azabicyclo[3.1.0]hexan-3-yl)ethoxy)isoxazol-5-yl)-3-methylbutanoyl)-4-hydroxy-N-((S)-1-(4-(4-methylthiazol-5-yl)phenyl)ethyl)pyrrolidine-2-carboxamide] | A (“A” indicates maximum degradation ≥ 75%) |
| > 75% | > 0.1 µM | > 0.1 µM | Cc1ncsc1-c1ccc([C@H](C)NC(=O)[C@@H]2C[C@@H](O)CN2C(=O)[C@@H](c2cc(OCCN3CC4(C3)CN(c3cc5cc(-c6ccccc6O)nnc5[nH]3)C4)no2)C(C)C)cc1 (racemic) [Compound 226, (2S,4R)-4-hydroxy-1-[(2R)-2-[3-(2-{6-[3-(2-hydroxyphenyl)-7H-pyrrolo[2,3-c]pyridazin-6-yl]-2,6-diazaspiro[3.3]heptan-2-yl}ethoxy)-1,2-oxazol-5-yl]-3-methylbutanoyl]-N-[(1S)-1-[4-(4-methyl-1,3-thiazol-5-yl)phenyl]ethyl]pyrrolidine-2-carboxamide] | A (“A” indicates maximum degradation ≥ 75%) |
| < 50% | > 1 µM | – | Cc1ncsc1-c1ccc([C@H](C)NC(=O)[C@@H]2C[C@@H](O)CN2C(=O)[C@@H](c2cc(OCCCN3CC(c4[nH]c5nnc(-c6ccccc6O)cc5c4C)C3)no2)C(C)C)cc1 (racemic) [Compound 229, (2S,4R)-4-hydroxy-1-((R)-2-(3-(3-(3-(3-(2-hydroxyphenyl)-5-methyl-7H-pyrrolo[2,3-c]pyridazin-6-yl)azetidin-1-yl)propoxy)isoxazol-5-yl)-3-methylbutanoyl)-N-((S)-1-(4-(4-methylthiazol-5-yl)phenyl)ethyl)pyrrolidine-2-carboxamide] | A (“A” indicates maximum degradation ≥ 75%) |
| < 50% | > 1 µM | – | Cc1ncsc1-c1ccc([C@H](C)NC(=O)[C@@H]2C[C@@H](O)CN2C(=O)[C@@H](c2cc(OCCNCCC(=O)N3CC(c4c[nH]c5nnc(-c6ccccc6O)cc45)C3)no2)C(C)C)cc1 (racemic) [Compound 230, (2S,4R)-4-hydroxy-1-((R)-2-(3-(2-((3-(3-(3-(2-hydroxyphenyl)-7H-pyrrolo[2,3-c]pyridazin-5-yl)azetidin-1-yl)-3-oxopropyl)amino)ethoxy)isoxazol-5-yl)-3-methylbutanoyl)-N-((S)-1-(4-(4-methylthiazol-5-yl)phenyl)ethyl)pyrrolidine-2-carboxamide] | B (“B” indicates maximum degradation ≥ 50%) |
| < 50% | > 0.1 µM | – | Cc1ncsc1-c1ccc([C@H](C)NC(=O)[C@@H]2C[C@@H](O)CN2C(=O)C(c2cc(N3CCC(C(=O)N4CC(c5c[nH]c6nnc(-c7ccccc7O)cc56)C4)CC3)no2)C(C)C)cc1 (mixture of isomers) [Compound 231, (2S,4R)-4-hydroxy-1-((S)-2-(3-(4-(3-(3-(2-hydroxyphenyl)-7H-pyrrolo[2,3-c]pyridazin-5-yl)azetidine-1-carbonyl)piperidin-1-yl)isoxazol-5-yl)-3-methylbutanoyl)-N-((S)-1-(4-(4-methylthiazol-5-yl)phenyl)ethyl)pyrrolidine-2-carboxamide] | A (“A” indicates maximum degradation ≥ 75%) |
| > 75% | > 0.01 µM | > 0.01 µM | Cc1ncsc1-c1ccc([C@H](C)NC(=O)[C@@H]2C[C@@H](O)CN2C(=O)[C@@H](c2cc(OCCN3CCN(c4cc5cc(-c6ccccc6O)nnc5[nH]4)CC3)no2)C(C)C)cc1 (racemic) [Compound 235, (2S,4R)-4-hydroxy-1-((R)-2-(3-(2-(4-(3-(2-hydroxyphenyl)-7H-pyrrolo[2,3-c]pyridazin-6-yl)piperazin-1-yl)ethoxy)isoxazol-5-yl)-3-methylbutanoyl)-N-((S)-1-(4-(4-methylthiazol-5-yl)phenyl)ethyl)pyrrolidine-2-carboxamide] | A (“A” indicates maximum degradation ≥ 75%) |
